# Columns and labels:
# OVCAR-3 cells [1] = details: literature; cited from earlier work
# Jurkat cells [2] = details: literature search; cited from earlier work
# Jurkat cells [3] = assay: Growth inhibition of Jurkat cells, resazurin-based in vitro toxicology assay (TOX-8); type: cell-based, Human; details: for activity at 100 µM: Homo sapiens, Jurkat, read-out: Jurkat cell growth as percentage of the untreated control
# RNA polymerase II = details: literature; cited from earlier work
# malignant erythroblasts = details: literature; cited from earlier work
# HT29 colon cancer cells = details: literature; cited from earlier work
# histone deacetylase 1 = biological target: T1, histone deacetylase 1 (Homo sapiens, UniProt Q13547); details: literature; cited from earlier work
# T1 construct: host or cells: HT29 (cell context of the cited finding)
# T1 sequence (Q13547 whole entry): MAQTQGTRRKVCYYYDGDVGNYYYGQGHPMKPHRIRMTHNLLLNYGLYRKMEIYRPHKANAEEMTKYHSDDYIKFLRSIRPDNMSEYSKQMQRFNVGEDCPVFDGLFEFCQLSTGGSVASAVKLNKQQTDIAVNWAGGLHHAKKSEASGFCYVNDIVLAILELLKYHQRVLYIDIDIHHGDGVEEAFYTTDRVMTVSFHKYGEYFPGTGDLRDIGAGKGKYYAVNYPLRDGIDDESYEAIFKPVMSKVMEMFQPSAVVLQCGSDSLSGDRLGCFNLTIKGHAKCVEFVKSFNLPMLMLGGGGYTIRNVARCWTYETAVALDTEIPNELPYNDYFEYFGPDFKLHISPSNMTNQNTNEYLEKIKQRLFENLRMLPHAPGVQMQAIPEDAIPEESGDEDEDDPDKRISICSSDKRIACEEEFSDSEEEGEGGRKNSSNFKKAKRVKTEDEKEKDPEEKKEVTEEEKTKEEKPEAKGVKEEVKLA
# human lymphoblast cells = assay: Growth of human lymphoblast cells cultured in identical conditions; type: cell-based; details: 50 μM
# Experimental: The positive association between lowered metabolite levels in Jurkat cells as predicted by CoMet and antiproliferative activity of the metabolite in that cell line is highly significant (Fisher's exact test two-tailed p-value=8.7×10^−6). Furthermore, when the effect of these metabolites on growth inhibition was tested in Jurkat and human lymphoblast cells cultured in identical conditions, a pattern of selectivity of the antiproliferative effect towards the cancer cell line became evident.
# normal T lymphocytes = details: cited from earlier work
# OVCAR-3 cells [4] = assay: Growth inhibition of OVCAR-3 cells, resazurin-based in vitro toxicology assay (TOX-8); type: cell-based, human; details: single metabolite, 100 μM, 72 hours
# [5] = biological target: T2, tryptophanyl-tRNA synthetase (Homo sapiens, UniProt P23381); details: literature; cited from earlier work
# T2 construct: host or cells: HeLa (cell context of the cited finding)
# T2 sequence (P23381 1-471): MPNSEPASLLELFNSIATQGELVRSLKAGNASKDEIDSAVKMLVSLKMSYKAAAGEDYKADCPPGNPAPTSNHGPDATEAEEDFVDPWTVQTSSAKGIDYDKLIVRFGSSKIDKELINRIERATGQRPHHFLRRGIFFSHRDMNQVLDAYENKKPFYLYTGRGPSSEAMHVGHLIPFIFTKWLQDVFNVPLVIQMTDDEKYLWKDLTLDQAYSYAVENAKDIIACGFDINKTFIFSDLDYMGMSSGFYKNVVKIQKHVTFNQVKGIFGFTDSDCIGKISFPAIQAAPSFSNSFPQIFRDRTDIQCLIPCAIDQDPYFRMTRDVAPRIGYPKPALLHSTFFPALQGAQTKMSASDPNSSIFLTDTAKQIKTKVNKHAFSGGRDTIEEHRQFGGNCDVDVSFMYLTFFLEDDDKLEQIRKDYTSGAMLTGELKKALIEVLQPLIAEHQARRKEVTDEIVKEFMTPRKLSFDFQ
# HeLa cell = details: literature; cited from earlier work
# HL-60 cells = details: literature; cited from earlier work
# [6] = single metabolite, 100 μM, 72 hour treatment, control = 100%, lower = stronger inhibition
compound,measurement,setting,value
COc1cc2c(cc1O)CC[C@@H]1[C@@H]2CC[C@]2(C)[C@@H](O)CC[C@@H]12 [2-methoxy-estradiol-17β],anticancer activity in OVCAR-3 cells previously demonstrated,OVCAR-3 cells [1],anticancer activity
same,anticancer activity in Jurkat cells known from the literature,Jurkat cells [2],apoptotic agent
Nc1ncnc2c1ncn2[C@H]1C[C@H](O)[C@@H](CO)O1 [2′-deoxyadenosine],anticancer activity in Jurkat cells known from the literature,Jurkat cells [2],active in Jurkat cells
Nc1nc2c(ncn2[C@H]2C[C@H](O)[C@@H](CO)O2)c(=O)[nH]1 [2′-deoxyguanosine],anticancer activity in Jurkat cells known from the literature,Jurkat cells [2],active in Jurkat cells
OC[C@H]1O[C@@H](n2cnc3c(O)ncnc32)C[C@@H]1O [2′-deoxyinosine],anticancer activity in Jurkat cells known from the literature,Jurkat cells [2],active in Jurkat cells
"N[C@@H](Cc1cc(I)c(Oc2ccc(O)c(I)c2)c(I)c1)C(=O)O [3′,3,5-triiodo-L-thyronine]",anticancer activity in OVCAR-3 cells previously demonstrated,OVCAR-3 cells [1],anticancer activity
"Cc1cc2nc[nH]c2cc1C [5,6-di-ethylbenzimidazole, 5,6-dimethylbenzimidazole]",activity at 100 µM,Jurkat cells [3]; [6],61.4%
"Clc1cc2nc[nH]c2cc1Cl [5,6-dichlorobenzimidazole]",effect on RNA polymerase II,RNA polymerase II,inhibiting
same,effect on malignant erythroblasts,malignant erythroblasts,induces differentiation
CCCCCCCCCC(O)CCCCCCCC(=O)O (stereo not drawn) [9-hydroxystearic acid],effect on HT29 colon cancer cells,HT29 colon cancer cells,arrests HT29 colon cancer cells in G0/G1 phase
same,effect on histone deacetylase 1,histone deacetylase 1,inhibition
CC1=C(/C=C/C(C)=C/C=C/C(C)=C/C(=O)O)C(C)(C)CCC1 [all-trans-retinoic acid],anticancer activity in OVCAR-3 cells previously demonstrated,OVCAR-3 cells [1],anticancer activity
C=CC1=C(C)/C(=C/c2[nH]c(Cc3[nH]c(/C=C4\NC(=O)C(C)=C4C=C)c(C)c3CCC(=O)O)c(CCC(=O)O)c2C)NC1=O [bilirubin],activity at 100 µM,Jurkat cells [3]; [6],21.3%
C=C1/C(=C\C=C2/CCC[C@]3(C)[C@@H]([C@H](C)CCCC(C)(C)O)CC[C@@H]23)C[C@@H](O)C[C@@H]1O [calcitriol],anticancer activity in OVCAR-3 cells previously demonstrated,OVCAR-3 cells [1],anticancer activity
CC(C)CCC[C@@H](C)[C@H]1CC[C@H]2[C@@H]3CC=C4C[C@@H](O)CC[C@]4(C)[C@H]3CC[C@]12C [cholesterol],activity at 100 µM,Jurkat cells [3]; [6],> 90%
O=C(O)CC(O)(CC(=O)O)C(=O)O [citric acid],activity at 100 µM,Jurkat cells [3]; [6],> 90%
C[C@]12CC[C@H](O)CC1=CC[C@@H]1[C@@H]2CC[C@]2(C)C(=O)CC[C@@H]12 [dehydroepiandrosterone],effect on proliferation of lymphoblasts (in words),human lymphoblast cells,stimulated the proliferation
same,effect on growth of Jurkat cells (in words),Jurkat cells [3]; 50 μM,inhibited the growth
Nc1nc2ncc(CNc3ccc(C(=O)N[C@@H](CCC(=O)O)C(=O)O)cc3)nc2c(=O)[nH]1 [folic acid],activity at 100 µM,Jurkat cells [3]; [6],> 90%
CC(=O)CO [hydroxyacetone],activity at 100 µM,Jurkat cells [3]; [6],> 70%
CCCCC/C=C\C/C=C\CCCCCCCC(=O)O [linoleic acid],anticancer activity in Jurkat cells known from the literature,Jurkat cells [2],active in Jurkat cells
COc1ccc2[nH]cc(CCNC(C)=O)c2c1 [melatonin],anticancer activity in Jurkat cells known from the literature,Jurkat cells [2],active in Jurkat cells
CC(=O)C=O [methylglyoxal],anticancer activity in Jurkat cells known from the literature,Jurkat cells [2],active in Jurkat cells
NC(=O)c1cccnc1 [nicotinamide],anticancer activity in Jurkat cells known from the literature,Jurkat cells [2],active in Jurkat cells
CC(C)(CO)[C@@H](O)C(=O)NCCC(=O)O [pantothenic acid],activity at 100 µM,Jurkat cells [3]; [6],> 90%
CCCCC[C@H](O)/C=C/[C@H]1C(=O)C[C@H](O)[C@@H]1C/C=C\CCCC(=O)O [prostaglandin D2],effect on viability of normal T lymphocytes,normal T lymphocytes,without inhibiting the viability
same,anticancer activity in Jurkat cells known from the literature,Jurkat cells [2],induces apoptosis
Cc1cc2nc3c(=O)[nH]c(=O)nc-3n(C[C@H](O)[C@H](O)[C@H](O)CO)c2cc1C [riboflavin],activity at 100 µM,Jurkat cells [3]; [6],> 70%
"N[C@@H](CS(=O)O)C(=O)O [sulfino-L-alanine, 3-sulfino-L-alanine]",effect on growth of Jurkat cells (in words),"Jurkat cells [3]; single metabolite, 100 μM, 72 hour treatment",did not inhibit the growth
same,effect on growth of OVCAR-3 cells (in words),OVCAR-3 cells [4],did not inhibit the growth
C[C@]12CC[C@H]3[C@@H](CCC4=CC(=O)CC[C@@]43C)[C@@H]1CC[C@@H]2O [testosterone],anticancer activity in Jurkat cells known from the literature,Jurkat cells [2],active in Jurkat cells
Cc1cn([C@H]2C[C@H](O)[C@@H](CO)O2)c(=O)[nH]c1=O [thymidine],anticancer activity in Jurkat cells known from the literature,Jurkat cells [2],antineoplastic agent
NCCc1c[nH]c2ccccc12 [tryptamine],effect on tryptophanyl-tRNA synthetase,[5],competitive inhibition
same,effect on HeLa cell growth,HeLa cell,effective inhibitor
COc1cc(C(O)C(=O)O)ccc1O (stereo not drawn) [vanillylmandelic acid],activity at 100 µM,Jurkat cells [3]; [6],> 90%
CCCCCCCCCCCCCCCCC(O)C(=O)O (stereo not drawn) [α-hydroxystearic acid],activity at 100 µM,Jurkat cells [3]; [6],67.8%
menaquinone,Jurkat cell growth as percentage of the untreated control,Jurkat cells [3]; [6],11.3%
same,effect on HL-60 cells,HL-60 cells,"induce G0/G1 arrest, differentiation, and apoptosis"
sphingolipid GD3,anticancer activity in Jurkat cells known from the literature,Jurkat cells [2],active in Jurkat cells

# — patent publication US20140309186A1, “Metabolomics-Based Identification of Disease-Causing Agents” (Georgia Tech Research Corporation, priority 2007, published 2014)
